SMILES strings stand for the structures.

What all share (assay type): cell-based
In assay [1] the test system is Bacillus cereus. The assay can be described thus: Keeping test, cooked rice contaminated with Bacillus cereus, 30° C. The note with it: for Effective keeping time: cooked rice contaminated with Bacillus cereus, 30° C., time until Bacillus cereus 10^6 /g or more. On the procedure: Two hundred grams of polished rice was washed in water, and with the addition of 240 ml of water, it was cooked for approximately 15 minutes in an electric rice-cooker which was of the type in public use. The rice cooked was left standing in hot steam for 10 minutes, and then left to cool off at room temperature. On the other hand, a suspension of spores of Bacillus cereus was prepared and added to the cooked rice, which had cooled off, in the proportion of n×10^2 to 1 g final specimen. Specimens were prepared by mixing the rice evenly with addition of the spores.
The cooked rice was put in a plastic case for each 120 g and its temperature was maintained at 30° C., and the number of total viable bacteria and the number of Bacillus cereus were measured periodically using a standard agar culture medium (37° C., 48 hours) and a polymyxin BCW agar culture medium with 5% egg yellow (37° C., 24 hours) for each In parallel with this measurement of the bacterium number, the specimens were examined concerning the outward appearance and the possible smell of putrefaction.
Each of the chemicals shown in Table 4 was dissolved in 20 ml of water to form an aqueous solution of a set concentration.

For assay [2], the system named is Bacillus cereus. In words: Keeping test, potato salad contaminated with Bacillus cereus, 30° C. As to conditions: time until Bacillus cereus 10^6 /g or more. The procedure: (§1) Potato salad was prepared according to the following recipe.
(§2) Mayonnaise in the proportion of 10% by weight against the above materials was combined with various chemicals of prescribed concentrations listed in Table 5 and these were evenly mixed with the above food materials. Mixed specimens were prepared by inoculating Bacillus cereus in the form of a spore suspension in such a way as to make the bacterial number n×10^2 per gram on the final specimen.
The same Bacillus cereus as in Example 1 was employed for this example.
(§3) The potato salad thus prepared was packed into plastic containers and left standing at 30° C. The bacterial number of total viable active bacteria and that of Bacillus cereus were measured with respect to the changes with time by the same method as in Example 1.
(§4) The effective keeping time and the figures in the upper and the lower spaces for each chemical in the list are used in the same meanings as in Example 4.

Assay [3] concerns total viable active bacteria. In words: Keeping test, potato salad not contaminated with Bacillus cereus, 30° C. The note with it: time without smell of putrefaction or change in outward appearance. The procedure:
as §1, §2, §3, §4

The test system of assay [4] is Bacillus cereus. The assay can be described thus: MIC, agar plate dilution method on standard nutrient agar. The note with it: for minimum growth inhibiting concentration (MIC): Bacillus cereus spores, 37° C., 24 hours, judged with the naked eye. On the procedure: (§5) The minimum growth inhibiting concentration (MIC) of various antibacterial substances against Bacillus cereus and other general putrefying bacteria were measured by using a standard nutrient agar (made by Difco Corp.) and by introducing the agar plate dilution method.
(§6) On a plain culture medium on which chemicals were placed in a stepwise dilution system the liquid spore suspension (×10^8 /ml) with respect to the strains of the genus of Bacillus and the respective pre-culture mediums (37° C., 24 hours) provided by Brain Heart Infusion Broth with respect to the other strains were smeared.

The subject of assay [5] is Leuconostoc mesenteroides. The description is as above. As to conditions: 37° C., 24 hours. On the procedure:
as §5, §6

The test system of the next assay is Lactobacillus casei. The assay is described as above. As to conditions: 37° C., 24 hours. The procedure:
as §5, §6

In the next assay the test system is Staphylococcus aureus. The description is as above. The note with it: 37° C., 24 hours. The procedure: as §5, §6
Another assay concerns Bacillus coaglans. The assay is described as above. As to conditions: Bacillus coaglans spores, 37° C., 24 hours. The procedure: as §5, §6
The subject of the next assay is Bacillus licheniformis. The assay is described as above. The note with it: Bacillus licheniformis spores, 37° C., 24 hours. On the procedure: as §5, §6
In a further assay the test system is Bacillus subtilis. The description is as above. As to conditions: Bacillus subtilis spores, 37° C., 24 hours. On the procedure: as §5, §6
The test system of another assay is Streptococcus faecalis. Described as above. The note with it: 37° C., 24 hours. The procedure: as §5, §6
The subject of the next assay is Bacillus megaterium. The description is as above. As to conditions: Bacillus megaterium spores, 37° C., 24 hours. On the procedure:
as §5, §6

A further assay has as its system total viable bacteria. In words: Keeping test, cooked rice not contaminated with Bacillus cereus, 30° C. As to conditions: time without smell of putrefaction or change in outward appearance.

Consider `CC(=O)[O-].[Na+]` [Sodium acetate], for which the “effectiveness against Bacillus cereus in tests with actual food” value in the assay on Bacillus cereus [1] (cooked rice (Example 4), result in words) is on record as “proved effective, though the effect is of no practical value”. The Effective keeping time was 11.5 h in the assay on Bacillus cereus [1] (chemical 0.4% by weight), 10.0 h in the assay with Bacillus cereus [2] (chemical 0.4% by weight), 27.0 h in assay [3] (chemical 0.4% by weight) and 43.0 h with total viable bacteria (chemical 0.4% by weight). Besides, the minimum growth inhibiting concentration (MIC) (in the assay on Bacillus cereus [4]; in [5]; in the assay on Lactobacillus casei; in the assay with Staphylococcus aureus; in the assay on Bacillus coaglans; with Bacillus licheniformis) was over 0.5% throughout. The minimum growth inhibiting concentration (MIC) in the assay with Bacillus subtilis, in the assay on Streptococcus faecalis and in the assay with Bacillus megaterium was over 0.5% throughout.
As for `CCCCCCCCCCCC(=O)OCC(O)CO` (stereo not shown) [Lauric acid monoglyceride], the Effective keeping time amounted to 8.2 h in the assay with Bacillus cereus [1] (chemical 0.01% by weight), 11.5 h with Bacillus cereus [2] (chemical 0.01% by weight), 22.0 h in assay [3] (chemical 0.01% by weight) and 40.0 h in the assay on total viable bacteria (chemical 0.01% by weight). In addition, the “minimum growth inhibiting concentration (MIC)” value in the assay with Bacillus cereus [4] (in %) was 0.0025; in [5] it was 0.01%; with Lactobacillus casei, 0.01%; in the assay on Staphylococcus aureus, 0.01%; in the assay with Bacillus coaglans (in %) it was 0.0025; in the assay on Bacillus licheniformis (in %) it was 0.0025. For the same molecule, the “minimum growth inhibiting concentration (MIC)” value came to 0.0025 in the assay with Bacillus subtilis (in %), 0.01% with Streptococcus faecalis and 0.0025 with Bacillus megaterium (in %). Also, the “growth inhibition effect against Bacillus cereus” value in the assay on Bacillus cereus [4] (standard nutrient agar, result in words) is “showed effectiveness”.

The values are drawn from patent US4954358A, “Multiplication inhibitor for Bacillus cereus” (priority 1986, dated 1990).
